Results on one substance are retold here after publication PMC9817077, “Simple, Reliable Protocol for High-Yield Solubilization of Seedless Amyloid-β Monomer” (ACS Chemical Neuroscience, 2022).

A short description of the assay: Global fitting of ThT self-assembly curves to nucleated polymerization models. It counts as physicochemical. The conditions noted are these: global fit. From the text:
To test whether an equivalent analysis favored
106 four models to ﬁt the experimental data. Each model was globally ﬁtted, with all kinetic 107 parameters shared across initial monomer concentrations.
Firstly, we tested the Oosawa model (19). In this model, ﬁbrils form by primary nucle-ation, which behaves as annthc -order multimerization process. Fibrils then grow by stepwise addition of monomers to the ﬁbril end, which behaves as a second-order association between a ﬁbril and a free monomer. This model admits the exact solution (13, 20) […]
m(0) = 1−sech2/nc 2 λt , (S2)
109 Here, kn is the rate parameter for primary nucleation and k+ is the rate parameter for 110 elongation. As shown in Figure S8(a), the Oosawa model results in a poor ﬁt. Speciﬁcally, 111 the lack of a secondary process means the model cannot produce exponential early-time 112 scaling, and lacks a pronounced lag phase. This […] our observation of exponential 113 early-time kinetics, and the ﬁndings of previous work (16).
Next, we tested models that included a secondary process. Three such processes were considered: fragmentation (13, 14, 21), single-step secondary nucleation (14), and saturable multi-stepsecondarynucleation(17,18). Inallthreecases, theapproximatesolutionhasthe same mathematical form, and the models diﬀer only in the deﬁnitions of certain parameters.
The general equation is (13, 14, 21)
M(t) B− +C+eκt κ˜k∞e−k∞t, (S4) m(0) = 1− B+ +C+eκt B− +C+
Here, λ has the same deﬁnition as Eq. (S3), andκ and k∞ have model-speciﬁc deﬁnitions.
Since fragmentation can be treated as a special case of secondary nucleation (14, 16), we begin with the deﬁnitions for single-step secondary nucleation, […]
114 where k2 is the (n2 + 1)th-order rate constant for formation of a secondary ﬁbril nucleus 115 of eﬀective sizen2, at a rate also proportional to the concentration of monomers already 116 incorporated into ﬁbrils (14).
The correct solution for fragmentation can be obtained by taking the limit n2→ 0 (in practice, setting n2 = 10−3) and substituting (13, 14, 21)
117 wherekf is the rate constant for fragmentation at each possible break point along the length 118 of the ﬁbril. When ﬁtting the fragmentation-dominated model, the value ofkf was con-119 strained such thatkfk+ =knk+× (10−5.5 M)nc/(10−8 M), a constraint that was also applied 120 in (16). This ensures that fragmentation becomes dominant when the ﬁbril mass concen-121 tration M(t)≈ 10 nM for a reaction with initial monomer concentration m(0) =√10 µM, 122 forcing the ﬁtting algorithm to maintain an appreciable level of fragmentation. Without 123 this constraint, kf is simply minimized in order to attain a high concentration-dependence, […]
124 resulting in a ﬁt very similar to that obtained for the Oosawa model (16). […]
used with the modiﬁed deﬁnitions
A(t) =− λ2nc− 2k2k+K2m(0)log [K2 +m(t)n2]n2
125 where K2 is the eﬀective Michaelis constant for secondary nucleation, and2F1 is a hyper-126 geometric function. Note that, unlike traditional Michaelis-Menten kinetics, the rate of 127 saturable secondary nucleation has an nth2 -order rather than a linear dependence on m(t) in 128 the low concentration limit (15, 17, 18).
129 As shown in Figure S8(b), fragmentation succeeds in producing exponential early-time 130 scaling and a pronounced lag phase, but also results in a weak concentration-dependence 131 and an overly sharp approach to the maximum ﬂuorescence intensity. The latter two issues 132 are caused by the insensitivity of fragmentation to depletion of the free monomer, and 133 also lead to a high ﬁtted reaction order of primary nucleation (nc = 5.23), an attempt to 134 compensate for the weak concentration scaling of the secondary process. Had the value 135 of kf been left unconstrained, the ﬁt would instead have done this by minimising the role 136 of the concentration-insensitive secondary pathway, producing a ﬁt similar to Figure S8(a).
138 better ﬁt, as it is able to simultaneously produce exponential early-time scaling, the correct […]

On to “Aβ(1-42): Ultrapure recombinant Aβ(1-42) purchased from rPeptide, lyophilized from HFIP; disordered amyloid-forming peptide”, for which the nc (fragmentation model, kf constrained) was found to be 5.23; the nc (primary nucleation only (Oosawa model), 1.5–6.0 μM, sample 50-5-N-13) came out at 2.37; the nc (saturable secondary nucleation, nc = n2 constrained) worked out at 2.37; the nc (single-step secondary nucleation, nc = n2 constrained) is given as 1.68. In addition, where the note is “saturable secondary nucleation”, the “K2 (effective Michaelis constant for secondary nucleation)” value was determined as 2.74 µM. For the same substance, the n2 is 2.37 (saturable secondary nucleation) and 1.68 (single-step secondary nucleation).
